The record followed here is article PMC5274652, “Antagonizing Retinoic Acid Receptors Increases Myeloid Cell Production by Cultured Human Hematopoietic Stem Cells” (Archivum Immunologiae et Therapiae Experimentalis, 2016).

Test [1] concerns the target T1, human RARβ (Homo sapiens, UniProt P10826).
T1 construct: made in house
T1 sequence (P10826 1-455): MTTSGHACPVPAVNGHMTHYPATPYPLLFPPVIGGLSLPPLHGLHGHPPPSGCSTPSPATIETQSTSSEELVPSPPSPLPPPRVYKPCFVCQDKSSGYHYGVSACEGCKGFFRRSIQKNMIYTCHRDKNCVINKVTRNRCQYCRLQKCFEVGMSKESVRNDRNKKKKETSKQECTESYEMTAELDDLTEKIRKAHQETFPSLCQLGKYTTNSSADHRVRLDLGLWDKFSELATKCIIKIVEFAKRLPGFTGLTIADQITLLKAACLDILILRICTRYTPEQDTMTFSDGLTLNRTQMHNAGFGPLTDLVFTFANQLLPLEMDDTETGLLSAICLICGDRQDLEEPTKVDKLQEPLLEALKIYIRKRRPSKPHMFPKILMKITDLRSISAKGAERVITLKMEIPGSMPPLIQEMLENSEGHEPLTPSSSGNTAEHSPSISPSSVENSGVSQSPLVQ
Description: Competition with [3H]-ATRA binding, nuclear extracts of Sf21 cells expressing RARβ. The conditions noted are these: nuclear extracts of baculovirus-infected Sf21 cells, read-out: Binding affinity ED50, RARβ.

Test [2] deals with T2, human RARγ (Homo sapiens, UniProt P13631).
T2 construct: made in house
T2 sequence (P13631 1-454): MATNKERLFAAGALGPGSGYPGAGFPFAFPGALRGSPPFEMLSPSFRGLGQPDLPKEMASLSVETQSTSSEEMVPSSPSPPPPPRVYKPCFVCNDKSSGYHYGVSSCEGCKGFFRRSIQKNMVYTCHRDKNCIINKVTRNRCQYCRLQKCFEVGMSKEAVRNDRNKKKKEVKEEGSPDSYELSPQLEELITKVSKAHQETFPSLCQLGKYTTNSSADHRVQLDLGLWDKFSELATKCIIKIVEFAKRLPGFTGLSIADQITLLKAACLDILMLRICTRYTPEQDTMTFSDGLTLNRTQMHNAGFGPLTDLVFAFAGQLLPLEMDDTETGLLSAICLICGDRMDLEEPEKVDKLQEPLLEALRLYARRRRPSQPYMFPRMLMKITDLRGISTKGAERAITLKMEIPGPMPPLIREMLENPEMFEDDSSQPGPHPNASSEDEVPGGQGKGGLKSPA
As to the kind of experiment: Competition with [3H]-ATRA binding, nuclear extracts of Sf21 cells expressing RARγ. The conditions noted are these: nuclear extracts of baculovirus-infected Sf21 cells, read-out: Binding affinity ED50, RARγ.

For test [3], the target named is T3, human RARα (Homo sapiens, UniProt P10276).
T3 construct: made in house
T3 sequence (P10276 1-462): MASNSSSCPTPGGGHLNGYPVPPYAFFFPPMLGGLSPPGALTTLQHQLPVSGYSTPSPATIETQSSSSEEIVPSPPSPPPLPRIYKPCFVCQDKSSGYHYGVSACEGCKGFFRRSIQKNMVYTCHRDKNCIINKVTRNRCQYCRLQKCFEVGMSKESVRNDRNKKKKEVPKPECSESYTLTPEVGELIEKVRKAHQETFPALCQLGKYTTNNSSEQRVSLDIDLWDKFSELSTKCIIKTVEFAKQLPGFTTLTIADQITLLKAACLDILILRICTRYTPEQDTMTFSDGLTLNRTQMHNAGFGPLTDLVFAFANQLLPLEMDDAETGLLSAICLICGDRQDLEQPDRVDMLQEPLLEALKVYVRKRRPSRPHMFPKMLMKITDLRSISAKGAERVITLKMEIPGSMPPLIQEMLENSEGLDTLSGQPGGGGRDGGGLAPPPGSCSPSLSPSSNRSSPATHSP
Description: Competition with [3H]-ATRA binding, nuclear extracts of Sf21 cells expressing RARα. Particulars: nuclear extracts of baculovirus-infected Sf21 cells, read-out: Binding affinity ED50, RARα.

The subject of test [4] is CD34^+vehuHSCs. As to the kind of experiment: Week-five CAFC and LTC-IC assays of cultured CD34+ve huHSC. It is filed as cell-based, human. Particulars: 100 nM, cells cultured 2 weeks, two donors. The method, then: Assays for week-five cobblestone area forming cells (CAFC), long-term culture-initiating cells (LTC-IC), and colony-forming units (CFU) were performed at the Stem Cell Laboratory at the National Blood Service Stem Cell Laboratory using standard procedures and methods, as described by other workers (de […] and Ploemacher [2001]; Denning-Kendall et al. [1996]; Nicol et al. [1996]). CFU assays were performed using Methocult^TM GF H8444 (StemCell Technologies) and in 35 mm petri dishes. The presence of CAFC was scored as the presence of 12 or more closely associated and small cells that were embedded in the MS5 cell feeder layer and blind by an experienced reader. The nature of CFUs, as to colony-forming unit-granulocyte/erythroid/megakaryocyte/monocyte (CFU-GEMM), colony-forming unit-granulocyte/macrophage (CFU-GM), burst-forming unit-erythroid (BFU-E), and colony-forming unit-erythroid (CFU-E), was scored blind at the service by a person who routinely reads colony assays and is accredited. The nature of colonies was confirmed by sampling colonies and staining cytocentrifuged preparations of cells.

With `CCc1ccc(C2=CC(C)(C)Sc3ccc(C#Cc4ccc(C(=O)O)cc4)cc32)cc1` [AGN194310], the IC50 in test [1] came out at 5 nM; in test [2] it was 2 nM; in test [3] it was 4.3 nM. Moreover, in test [4], the “presence of week-five CAFC and LTC-IC” value was “only present in pan-RAR-antagonized wells”.
